Tests used:
Assay in all cases: flow cytometry, inhibition of purified knob binding to HCE cells
Format in all cases: cell-based
Details in all cases: knob preincubated with ME0462, 1 h, 4 °C; human corneal epithelial cells
HAdV-D37/64 fiber knob = target: T1, HAdV-D37/64 fiber knob (Human adenovirus D37, UniProt Q64823)
T1 construct: gene L5; N-terminal RGS-His tag kept (pQE30-Xa); E. coli M15; Ni-NTA and Q-sepharose

HAdV-D54 fiber knob = target: T2, HAdV-D54 fiber knob (Human adenovirus 54, UniProt B9A5P2)
T2 construct: gene L5

HAdV-D8/53 fiber knob = target: T3, HAdV-D8/53 fiber knob (Human adenovirus D8, UniProt P36845)
T3 construct: gene L5

ME0462
% inhibition at 80 μM (HAdV-D37/64 fiber knob): 70% | % inhibition at 80 μM (HAdV-D54 fiber knob): 60% | % inhibition at 80 μM (HAdV-D8/53 fiber knob): 60%
